This is an account of results in ChEMBL document CHEMBL2413017, “Identification of novel HDAC inhibitors through cell based screening and their evaluation as potential anticancer agents” (Bioorg Med Chem Lett, 2013).

Data set [1] relates to SK-OV-3. In words: Cytotoxicity against human SKOV3 cells. Type of data set: functional, cell-based.
For data set [2], the system named is MIA PaCa-2. In words: Antitumor activity against human MIAPaCa2 cells xenografted in Ncr mouse assessed as tumor growth inhibition at 80 mg/kg, ip administered daily for 22 days measured on day 25 relative to vehicle-treated control. Type of data set: functional, organism-based. Details: dose 80 mg/kg. For orientation: A xenograft is tissue or cells of one species grown in another, often human tumour cells in immunodeficient mice.

A short description of data set [3]: Cytotoxicity against human MiaPaCa cells. Type of data set: functional, cell-based. As to conditions: MIA PaCa-2.
The target in data set [4] is Histone deacetylase 3 (Homo sapiens, UniProt O15379). In words: Inhibition of HDAC3 (unknown origin).
Histone deacetylase 3, sequence (O15379 whole entry): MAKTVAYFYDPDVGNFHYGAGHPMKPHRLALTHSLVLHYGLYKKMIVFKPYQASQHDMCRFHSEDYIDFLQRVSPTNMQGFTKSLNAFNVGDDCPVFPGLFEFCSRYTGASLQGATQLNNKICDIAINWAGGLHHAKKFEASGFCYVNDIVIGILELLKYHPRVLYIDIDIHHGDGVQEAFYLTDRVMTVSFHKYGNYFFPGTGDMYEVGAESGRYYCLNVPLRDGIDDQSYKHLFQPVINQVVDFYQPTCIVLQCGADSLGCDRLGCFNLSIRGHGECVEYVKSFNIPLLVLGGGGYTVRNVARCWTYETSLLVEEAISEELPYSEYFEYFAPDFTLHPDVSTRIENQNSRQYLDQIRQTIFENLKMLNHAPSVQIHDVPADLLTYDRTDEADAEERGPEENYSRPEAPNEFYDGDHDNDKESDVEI
In data set [5] the target is T1, Protein deacetylase HDAC6 (Homo sapiens, UniProt Q9UBN7).
T1 sequence (Q9UBN7 whole entry): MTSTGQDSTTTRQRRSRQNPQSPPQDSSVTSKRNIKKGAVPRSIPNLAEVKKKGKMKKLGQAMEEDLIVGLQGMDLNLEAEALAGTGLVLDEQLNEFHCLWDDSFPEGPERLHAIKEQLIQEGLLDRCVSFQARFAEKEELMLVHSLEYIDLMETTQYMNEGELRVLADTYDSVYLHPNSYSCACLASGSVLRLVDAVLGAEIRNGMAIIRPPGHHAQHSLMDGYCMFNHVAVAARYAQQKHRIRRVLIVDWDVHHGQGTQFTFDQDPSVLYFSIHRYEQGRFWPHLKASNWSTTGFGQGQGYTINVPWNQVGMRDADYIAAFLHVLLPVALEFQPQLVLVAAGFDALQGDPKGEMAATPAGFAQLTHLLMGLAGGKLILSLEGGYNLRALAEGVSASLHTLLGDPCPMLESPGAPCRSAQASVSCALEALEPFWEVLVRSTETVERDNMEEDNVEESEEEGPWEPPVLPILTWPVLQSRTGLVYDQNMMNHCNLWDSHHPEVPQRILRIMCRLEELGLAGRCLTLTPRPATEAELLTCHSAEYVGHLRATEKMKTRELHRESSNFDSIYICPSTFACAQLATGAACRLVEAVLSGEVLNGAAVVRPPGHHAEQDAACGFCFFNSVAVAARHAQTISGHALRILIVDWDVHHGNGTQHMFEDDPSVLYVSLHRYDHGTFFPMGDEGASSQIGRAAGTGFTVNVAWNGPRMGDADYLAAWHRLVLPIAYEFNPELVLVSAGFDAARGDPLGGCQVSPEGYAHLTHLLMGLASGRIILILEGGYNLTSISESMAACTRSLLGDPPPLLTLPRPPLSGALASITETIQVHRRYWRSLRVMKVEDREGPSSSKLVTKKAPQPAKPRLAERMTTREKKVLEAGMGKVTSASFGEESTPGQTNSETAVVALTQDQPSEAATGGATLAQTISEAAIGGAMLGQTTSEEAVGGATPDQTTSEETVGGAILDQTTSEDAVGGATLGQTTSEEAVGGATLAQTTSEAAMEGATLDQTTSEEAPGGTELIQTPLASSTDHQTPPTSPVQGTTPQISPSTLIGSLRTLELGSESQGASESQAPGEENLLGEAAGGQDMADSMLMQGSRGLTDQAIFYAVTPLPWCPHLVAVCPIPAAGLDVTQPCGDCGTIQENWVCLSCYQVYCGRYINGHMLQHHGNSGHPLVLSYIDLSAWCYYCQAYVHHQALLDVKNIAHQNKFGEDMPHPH
In words: Inhibition of HDAC6 (unknown origin).

For data set [6], the target named is Histone deacetylase 4 (Homo sapiens, UniProt P56524). In words: Inhibition of HDAC4 (unknown origin).
Histone deacetylase 4, sequence (P56524 whole entry): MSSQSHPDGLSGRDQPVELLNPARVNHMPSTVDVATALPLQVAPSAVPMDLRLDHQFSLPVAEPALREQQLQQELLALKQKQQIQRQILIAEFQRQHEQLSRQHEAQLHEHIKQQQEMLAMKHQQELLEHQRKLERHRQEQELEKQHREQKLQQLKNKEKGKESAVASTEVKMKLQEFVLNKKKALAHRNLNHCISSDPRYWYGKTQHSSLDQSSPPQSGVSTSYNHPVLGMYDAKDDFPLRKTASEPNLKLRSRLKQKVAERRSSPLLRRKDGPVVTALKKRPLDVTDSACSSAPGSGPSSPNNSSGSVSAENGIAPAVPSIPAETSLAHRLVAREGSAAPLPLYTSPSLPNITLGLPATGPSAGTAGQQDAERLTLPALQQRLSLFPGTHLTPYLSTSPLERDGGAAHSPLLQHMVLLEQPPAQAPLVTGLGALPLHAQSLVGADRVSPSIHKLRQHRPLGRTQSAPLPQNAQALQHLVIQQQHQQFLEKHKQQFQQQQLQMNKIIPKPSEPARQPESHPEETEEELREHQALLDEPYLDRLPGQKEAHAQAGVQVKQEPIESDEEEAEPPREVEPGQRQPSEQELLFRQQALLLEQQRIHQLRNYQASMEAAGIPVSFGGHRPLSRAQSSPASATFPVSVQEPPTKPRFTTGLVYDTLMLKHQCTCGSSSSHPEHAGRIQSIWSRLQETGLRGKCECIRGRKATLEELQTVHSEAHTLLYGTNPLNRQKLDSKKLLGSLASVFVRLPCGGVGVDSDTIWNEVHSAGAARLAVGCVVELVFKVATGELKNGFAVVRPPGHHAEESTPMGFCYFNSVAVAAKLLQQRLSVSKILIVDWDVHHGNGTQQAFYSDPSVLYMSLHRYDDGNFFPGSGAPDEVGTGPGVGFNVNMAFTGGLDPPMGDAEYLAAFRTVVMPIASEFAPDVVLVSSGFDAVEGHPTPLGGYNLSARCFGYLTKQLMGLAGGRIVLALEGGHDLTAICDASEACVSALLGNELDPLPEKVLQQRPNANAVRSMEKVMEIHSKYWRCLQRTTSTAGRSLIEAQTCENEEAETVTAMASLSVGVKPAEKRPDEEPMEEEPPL
Data set [7] deals with MDA-MB-231. In words: Cytotoxicity against human MDA-MB-231 cells. Type of data set: functional, cell-based.
For data set [8], the target named is T2, Histone deacetylase 11 (Homo sapiens, UniProt Q96DB2).
T2 sequence (Q96DB2 whole entry): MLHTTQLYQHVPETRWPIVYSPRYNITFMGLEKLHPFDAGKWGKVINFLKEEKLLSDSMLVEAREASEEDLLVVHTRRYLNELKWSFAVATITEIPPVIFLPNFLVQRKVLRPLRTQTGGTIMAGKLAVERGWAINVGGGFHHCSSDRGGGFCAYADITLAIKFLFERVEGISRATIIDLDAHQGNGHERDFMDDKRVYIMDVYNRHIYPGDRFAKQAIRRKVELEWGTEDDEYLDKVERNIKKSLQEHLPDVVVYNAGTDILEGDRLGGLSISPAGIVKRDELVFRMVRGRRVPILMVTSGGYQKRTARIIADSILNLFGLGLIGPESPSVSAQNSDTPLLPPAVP
In words: Inhibition of HDAC11 (unknown origin).

Data set [9] in a line: Cytotoxicity against human Hep3B cells. In kind it is functional, cell-based, Hep 3B2.
The subject of data set [10] is Mus musculus. In words: Toxicity in human MiaPaCa2 cells xenografted Ncr mouse at 50 to 100 mg/kg, po administered daily for 22 days. Details: dose 50-100 mg/kg, route oral. As to conditions: in vivo, 528 h. Type of data set: organism-based.
Data set [11] deals with Histone deacetylase 2 (Homo sapiens, UniProt Q92769). In words: Inhibition of HDAC2 (unknown origin).
Histone deacetylase 2, sequence (Q92769 whole entry): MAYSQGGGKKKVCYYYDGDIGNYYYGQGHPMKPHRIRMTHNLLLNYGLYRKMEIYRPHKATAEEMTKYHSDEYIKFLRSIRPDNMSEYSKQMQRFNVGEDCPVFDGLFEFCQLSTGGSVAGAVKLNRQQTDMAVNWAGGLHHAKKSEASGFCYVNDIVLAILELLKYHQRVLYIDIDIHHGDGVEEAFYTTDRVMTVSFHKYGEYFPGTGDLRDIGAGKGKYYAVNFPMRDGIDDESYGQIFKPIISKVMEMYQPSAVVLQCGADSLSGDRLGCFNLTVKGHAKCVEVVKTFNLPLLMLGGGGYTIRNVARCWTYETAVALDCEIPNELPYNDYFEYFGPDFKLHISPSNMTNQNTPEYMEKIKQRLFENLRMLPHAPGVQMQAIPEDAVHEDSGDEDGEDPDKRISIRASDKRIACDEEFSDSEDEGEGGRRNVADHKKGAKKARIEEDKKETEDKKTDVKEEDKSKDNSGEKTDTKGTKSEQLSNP
Data set [12] can be described thus: Cytotoxicity against human MV522 cells. In kind it is functional, cell-based.
Data set [13] in a line: Cytotoxicity against human MIHA cells. Type of data set: functional, cell-based.
Data set [14] is described as follows: Cytotoxicity against human SNU880 cells. In kind it is functional, cell-based.
The test system of data set [15] is MIA PaCa-2. In words: Antitumor activity against human MIAPaCa2 cells xenografted in Ncr mouse assessed as tumor growth inhibition at 100 mg/kg, po administered daily for 22 days measured on day 22 relative to vehicle-treated control. Type of data set: functional. As to conditions: MIA PaCa-2, 528 h, read-out: TGI.
The test system of data set [16] is NCI-H295R. In words: Cytotoxicity against human NCI-H295R cells. In kind it is functional, cell-based.
The target of data set [17] is T3, Histone deacetylase 8 (Homo sapiens, UniProt Q9BY41).
T3 sequence (Q9BY41 whole entry): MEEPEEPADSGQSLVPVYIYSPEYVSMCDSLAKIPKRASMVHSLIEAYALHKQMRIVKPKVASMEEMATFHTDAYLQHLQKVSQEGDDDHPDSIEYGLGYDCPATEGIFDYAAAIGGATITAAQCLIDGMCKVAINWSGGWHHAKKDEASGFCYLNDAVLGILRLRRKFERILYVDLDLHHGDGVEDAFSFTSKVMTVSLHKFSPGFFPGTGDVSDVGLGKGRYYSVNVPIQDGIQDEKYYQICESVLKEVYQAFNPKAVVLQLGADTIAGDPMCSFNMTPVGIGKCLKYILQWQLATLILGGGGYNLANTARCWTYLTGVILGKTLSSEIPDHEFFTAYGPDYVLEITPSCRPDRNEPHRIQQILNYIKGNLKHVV
In words: Inhibition of HDAC8 (unknown origin).

Data set [18] in a line: Cytotoxicity against human A2780C/P cells. Type of data set: functional, cell-based.
Data set [19] addresses Histone deacetylase 9 (Homo sapiens, UniProt Q9UKV0). In words: Inhibition of HDAC9 (unknown origin).
Data set [20] can be described thus: Cytotoxicity against human H23 cells. In kind it is functional, cell-based. Conditions: NCI-H23.
For data set [21], the target named is Histone deacetylase 5 (Homo sapiens, UniProt Q9UQL6). In words: Inhibition of HDAC5 (unknown origin).
Histone deacetylase 5, sequence (Q9UQL6 whole entry): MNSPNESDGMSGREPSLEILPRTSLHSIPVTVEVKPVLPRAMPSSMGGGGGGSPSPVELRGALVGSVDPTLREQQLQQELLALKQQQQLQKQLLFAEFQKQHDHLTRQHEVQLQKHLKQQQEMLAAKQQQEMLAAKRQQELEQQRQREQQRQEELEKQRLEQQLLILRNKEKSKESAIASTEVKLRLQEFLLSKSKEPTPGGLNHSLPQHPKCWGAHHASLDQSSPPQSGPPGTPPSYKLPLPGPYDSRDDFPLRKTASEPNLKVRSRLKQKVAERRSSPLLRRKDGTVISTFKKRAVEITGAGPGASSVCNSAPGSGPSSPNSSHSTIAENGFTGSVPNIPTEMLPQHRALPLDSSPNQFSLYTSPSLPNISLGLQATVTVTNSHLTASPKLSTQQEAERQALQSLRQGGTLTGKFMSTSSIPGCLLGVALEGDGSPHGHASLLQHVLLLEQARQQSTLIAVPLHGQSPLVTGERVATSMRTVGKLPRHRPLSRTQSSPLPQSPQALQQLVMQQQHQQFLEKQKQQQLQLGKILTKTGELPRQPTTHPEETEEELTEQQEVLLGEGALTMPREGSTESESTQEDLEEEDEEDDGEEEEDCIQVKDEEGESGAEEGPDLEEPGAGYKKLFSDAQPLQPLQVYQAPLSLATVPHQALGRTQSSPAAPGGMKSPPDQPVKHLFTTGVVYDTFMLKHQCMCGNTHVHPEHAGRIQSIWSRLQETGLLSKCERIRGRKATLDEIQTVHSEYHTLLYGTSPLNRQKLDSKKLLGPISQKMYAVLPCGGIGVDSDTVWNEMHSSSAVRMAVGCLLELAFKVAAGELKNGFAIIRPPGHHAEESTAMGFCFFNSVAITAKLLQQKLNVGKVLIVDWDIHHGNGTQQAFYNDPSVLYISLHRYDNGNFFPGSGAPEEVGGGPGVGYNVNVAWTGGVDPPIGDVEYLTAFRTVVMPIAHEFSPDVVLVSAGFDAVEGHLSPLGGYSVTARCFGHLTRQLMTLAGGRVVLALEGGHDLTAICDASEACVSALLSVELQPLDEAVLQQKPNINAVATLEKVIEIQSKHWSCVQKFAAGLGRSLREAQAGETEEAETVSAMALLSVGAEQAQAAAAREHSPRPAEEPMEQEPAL
Data set [22] has as its system A2780. In words: Cytotoxicity against human A2780 cells. In kind it is functional, cell-based.
A short description of data set [23]: Cytotoxicity against human VCaP cells. In kind it is functional, cell-based.
Data set [24] deals with T4, Polyamine deacetylase HDAC10 (Homo sapiens, UniProt Q969S8).
T4 sequence (Q969S8 whole entry): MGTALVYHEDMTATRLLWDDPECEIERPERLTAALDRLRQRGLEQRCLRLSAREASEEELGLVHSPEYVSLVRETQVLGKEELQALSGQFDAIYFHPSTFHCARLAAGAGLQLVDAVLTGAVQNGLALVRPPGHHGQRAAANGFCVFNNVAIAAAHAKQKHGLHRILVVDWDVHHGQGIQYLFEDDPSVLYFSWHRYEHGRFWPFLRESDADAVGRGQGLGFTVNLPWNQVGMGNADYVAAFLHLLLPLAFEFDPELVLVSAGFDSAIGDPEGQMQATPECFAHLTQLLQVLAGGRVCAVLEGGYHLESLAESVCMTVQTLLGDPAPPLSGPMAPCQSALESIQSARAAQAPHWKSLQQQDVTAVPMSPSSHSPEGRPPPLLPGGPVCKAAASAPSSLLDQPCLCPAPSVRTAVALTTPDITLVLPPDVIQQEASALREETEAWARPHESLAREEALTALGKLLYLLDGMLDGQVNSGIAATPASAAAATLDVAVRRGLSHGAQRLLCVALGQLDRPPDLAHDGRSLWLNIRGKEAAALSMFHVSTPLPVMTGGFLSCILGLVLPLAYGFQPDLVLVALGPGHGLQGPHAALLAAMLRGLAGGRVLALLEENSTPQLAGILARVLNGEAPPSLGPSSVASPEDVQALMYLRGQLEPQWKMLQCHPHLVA
In words: Inhibition of HDAC10 (unknown origin).

The target in data set [25] is Histone deacetylase 1 (Homo sapiens, UniProt Q13547). In words: Inhibition of HDAC1 (unknown origin).
Histone deacetylase 1, sequence (Q13547 whole entry): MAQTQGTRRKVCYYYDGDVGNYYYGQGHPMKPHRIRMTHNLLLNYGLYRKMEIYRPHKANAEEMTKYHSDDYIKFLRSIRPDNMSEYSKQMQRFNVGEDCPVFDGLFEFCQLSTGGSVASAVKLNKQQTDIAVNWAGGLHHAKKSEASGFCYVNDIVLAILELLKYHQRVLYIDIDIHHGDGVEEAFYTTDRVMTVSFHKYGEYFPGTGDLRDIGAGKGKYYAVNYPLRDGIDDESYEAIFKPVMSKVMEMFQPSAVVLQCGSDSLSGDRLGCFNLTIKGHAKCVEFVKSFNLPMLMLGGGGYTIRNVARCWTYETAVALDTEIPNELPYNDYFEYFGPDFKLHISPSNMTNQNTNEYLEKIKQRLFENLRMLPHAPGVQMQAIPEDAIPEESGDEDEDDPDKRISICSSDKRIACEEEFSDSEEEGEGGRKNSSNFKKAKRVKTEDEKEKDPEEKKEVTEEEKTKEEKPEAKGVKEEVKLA
Data set [26] relates to NCI-H69. In words: Cytotoxicity against human H69 cells. Type of data set: functional, cell-based.
Data set [27] concerns NCI-H69. In words: Cytotoxicity against […] expressing human H69 cells. In kind it is functional, cell-based.

Structures are written as SMILES. Calls of active or inactive are those of the source. The calls are words filed in the database; no cut-off is given here.

Histone deacetylase 9, sequence (Q9UKV0 whole entry): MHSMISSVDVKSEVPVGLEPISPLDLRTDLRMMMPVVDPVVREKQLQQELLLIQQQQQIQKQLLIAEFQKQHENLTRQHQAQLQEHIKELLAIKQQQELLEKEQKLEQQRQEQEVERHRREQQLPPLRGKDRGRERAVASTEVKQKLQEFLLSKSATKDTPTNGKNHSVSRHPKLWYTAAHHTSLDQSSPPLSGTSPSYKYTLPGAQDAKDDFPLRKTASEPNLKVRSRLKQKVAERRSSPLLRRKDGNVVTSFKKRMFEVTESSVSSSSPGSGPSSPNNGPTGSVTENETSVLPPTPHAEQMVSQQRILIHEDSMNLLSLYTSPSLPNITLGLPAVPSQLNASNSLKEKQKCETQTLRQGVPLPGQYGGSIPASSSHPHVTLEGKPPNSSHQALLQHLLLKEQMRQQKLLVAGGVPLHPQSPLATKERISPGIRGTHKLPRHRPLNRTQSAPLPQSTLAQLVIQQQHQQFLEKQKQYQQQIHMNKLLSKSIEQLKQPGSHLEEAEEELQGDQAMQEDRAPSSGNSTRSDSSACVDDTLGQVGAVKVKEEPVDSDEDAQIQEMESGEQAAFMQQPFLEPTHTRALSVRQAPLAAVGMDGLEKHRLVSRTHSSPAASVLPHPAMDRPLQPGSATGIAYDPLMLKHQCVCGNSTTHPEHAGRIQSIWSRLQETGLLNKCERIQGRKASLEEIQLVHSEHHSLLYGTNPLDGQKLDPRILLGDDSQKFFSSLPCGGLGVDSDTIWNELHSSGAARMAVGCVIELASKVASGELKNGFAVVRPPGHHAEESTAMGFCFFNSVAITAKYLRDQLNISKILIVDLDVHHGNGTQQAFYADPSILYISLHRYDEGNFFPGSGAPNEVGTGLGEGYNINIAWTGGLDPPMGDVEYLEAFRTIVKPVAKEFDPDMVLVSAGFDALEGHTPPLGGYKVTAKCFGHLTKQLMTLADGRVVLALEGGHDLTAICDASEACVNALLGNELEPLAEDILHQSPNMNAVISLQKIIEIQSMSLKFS

What is called IC50 is the concentration needed to halve the response being measured. A high value points to a need for much substance. In the case of `O=C(CCCCCCc1nc2ccc(-c3cccc(F)c3)cc2[nH]1)NO`, the IC50 in data set [1] worked out at 1500 nM.
Regarding `O=C(CCCCCCc1nc2ccc(-c3ccc(F)cc3)cc2[nH]1)NO`, the IC50 in data set [1] came to 1200 nM.
Take `COc1ccc(-c2ccc3nc(CCCCCCC(=O)NO)[nH]c3c2)cc1`: the IC50 in [1] was 3100 nM.
The same measure, in the same setting: next, `O=C(CCCCCCc1nc2ccc(F)cc2[nH]1)NO`: 1900 nM.
Take `Nc1ccn([C@@H]2O[C@H](CO)[C@@H](O)C2(F)F)c(=O)n1`: in [2], the TGI result was “Active”.
For the compound `O=C(CCCCCCC(=O)Nc1ccccc1)NO` [VORINOSTAT], the IC50 in [3] and in [1] was 2300 nM each time.
For `O=C(CCCCCCc1nc2ccccc2n1C1CC1)NO`, the IC50 in data set [1] is 9500 nM. This lies in the single-digit micromolar range.
`O=C(CCCCCCc1nc2ccccc2n1-c1ccccc1)NO`: in [1], the IC50 was more than 20000 nM.
Same read-out and setting: for `O=C(CCCCCCc1nc2ccncc2[nH]1)NO` the value was more than 20000 nM; for `CN(C)c1ccc2nc(CCCCCCC(=O)NO)[nH]c2c1`, 1200 nM.
As to `O=C(CCCCCCc1nc2cccc(Cl)c2[nH]1)NO`, inhibition in [1] was half-maximal at 10000 nM (IC50).
Take `O=C(CCCCCCc1nc2ccc(-c3ccccc3F)cc2[nH]1)NO`: the IC50 in [1] was found to be 7400 nM.
In the case of `O=C(CCCCCCc1nc2ccccc2n1C1CCCC1)NO`, in data set [1], half-maximal inhibition (IC50) was put at 4800 nM.
Consider `COc1ccc2nc(CCCCCCC(=O)NO)[nH]c2c1`, for which it took 11000 nM to reach half-maximal inhibition in [1] (IC50).
On to `O=C(CCCCCCc1nc2ccccc2[nH]1)NO`, for which the IC50 in [1] turned out to be 2700 nM.
`O=C(CCCCCCc1nc2ccc(-c3cncnc3)cc2[nH]1)NO`: in data set [1], inhibition was half-maximal at 2600 nM (IC50).
Same read-out and setting: for `CN(C)c1ccc(-c2ccc3nc(CCCCCCC(=O)NO)[nH]c3c2)cc1` the value was 6600 nM.
On the same count and under the same terms, for `Cn1c(CCCCCCC(=O)NO)nc2ccccc21` the value was 3000 nM.
On to `O=C(CCCCCCc1nc2ccc(Br)cc2[nH]1)NO`, for which the IC50 was determined as 6.4 nM in data set [4]; 1.9 nM in data set [5]; 279 nM in data set [6]; 820 nM in data set [7]; 33.4 nM in [8]; 610 nM in data set [9]. In addition, the IC50 was 34.1 nM in data set [11]; 2200 nM in data set [12]; 230 nM in data set [13]; 980 nM in data set [14]; 89 nM in [3]; 180 nM in data set [16]. Further, the IC50 in [17] was found to be 282 nM; in [18], 2000 nM; in data set [1], 260 nM; in [19] it was 1.1 nM; in data set [20], 560 nM; in data set [21], 2.5 nM. The IC50 amounted to 1900 nM in data set [22]; 2400 nM in data set [23]; 3 nM in [24]; 20.2 nM in data set [25]; 150 nM in [26]; 170 nM in data set [27]. In addition, the Activity result in data set [10] was “Non-toxic”. Moreover, in [15], the inhibition in vivo at 100 mg/kg was 74%.
Consider `O=C(CCCCCCc1nc2ccc(Cl)cc2[nH]1)NO`, for which inhibition in [1] was half-maximal at 320 nM (IC50). That is a sub-micromolar value.
Turning to `O=C(CCCCCCc1nc2ccc(-c3ccccc3)cc2[nH]1)NO`, in data set [1], the midpoint of inhibition, the IC50, lay at 100 nM. Compared with the last compound, the IC50 is about 3.2-fold lower.
Still for that read-out and setting: for `O=C(CCCCCc1nc2ccccc2[nH]1)NO` the value was 11000 nM.
